Earlier results on one compound are cited in patent US9456994B2, “Efficient process for the preparation of lycopene containing oleoresin and lycopene crystals for human consumption” (OMNIACTIVE HEALTH TECHNOLOGIES LIMITED, priority 2011, dated 2016).

For series [1] the following is noted: organic solvents.

`CC(C)=CCC/C(C)=C/C=C/C(C)=C/C=C/C(C)=C/C=C/C=C(C)/C=C/C=C(C)/C=C/C=C(\C)CCC=C(C)C` [lycopene, Lycopene]: in series [1], the solubility result was “soluble in chloroform, hexane, benzene, carbon disulphide, acetone, petroleum ether”. The lycopene lost (heated at 100 degree C in the presence of carbon dioxide) is recorded as 5%. In addition, the lycopene degraded entry (heated at 100 degree C in the presence of oxygen) was “More than 30%”.
